We go through four compounds from ChEMBL document CHEMBL1143765 (Science, 2007).

Activity calls are given as the source filed them. No cut-off for these calls is given here.

Assay [1] can be described thus: Displacement of [3H]leucine from Aquifex aeolicus His-LeuT expressed in Escherichia coli by scintillation proximity assay.
The test system of another assay is Aquifex aeolicus. Briefly: Inhibition of [3H]leucine transport activity of LeuT in proteoliposomes by scintillation proximity assay.

In turn, `CN(C)CCCN1c2ccccc2CCc2ccccc21` [IMIPRAMINE] returned a half-inhibitory concentration (IC50) in assay [1] of 244 µM.

For the compound `CNCCC(Oc1ccc(C(F)(F)F)cc1)c1ccccc1` (stereo not given) [FLUOXETINE], the IC50 in assay [1] was 858 µM.

As to `CNCCCN1c2ccccc2CCc2ccccc21` [DESIPRAMINE], in assay [1], the IC50 was 80 µM. For the same compound, in the assay on Aquifex aeolicus, the outcome was Active.

In assay [1], `CNCCC=C1c2ccccc2CCc2ccccc21` [NORTRIPTYLINE] displayed an IC50 of 75 µM.
